From ChEMBL document CHEMBL5365407, “Design, synthesis and biological evaluation of nitric oxide-releasing 5-cyano-6-phenyl-2, 4-disubstituted pyrimidine derivatives” (Bioorg Med Chem Lett, 2023)
pIC50: −log10 of the molar value. Active and inactive are the calls of the source. No cut-off for these calls is given here.

How the values were obtained:
ECa-109 cell line = assay: Antiproliferative activity against human Eca-109 cells measured after 72 hrs by MTT assay; type: functional, cell-based; details: ECa-109, 72 h
PC-3 = assay: Antiproliferative activity against human PC-3 cells measured after 72 hrs by MTT assay; type: functional, cell-based; details: PC-3, 72 h
MGC-803 = assay: cells; details: Homo sapiens, MGC-803, 72 h
Description: Antiproliferative activity against human MGC-803 cells measured after 72 hrs by MTT assay

MCF7 = assay: cells; details: Homo sapiens, MCF7, 72 h
Description: Antiproliferative activity against human MCF7 cells measured after 72 hrs by MTT assay

[1] = Induction of NO release in phosphate buffer containing excess L-cysteine measured up to 14 hrs by Griess assay; type: functional

| SMILES | pIC50 (PC-3) | pIC50 (MGC-803) | pIC50 (MCF7) | pIC50 (ECa-109 cell line) | Activity [1] |
| --- | --- | --- | --- | --- | --- |
| CCCc1cccc(Nc2nc(SCC(=O)N3CCN(CCOc4no[n+]([O-])c4S(=O)(=O)c4ccccc4)CC3)nc(-c3ccccc3)c2C#N)c1 | 5.53 | 5.72 | 5.52 | 5.09 |  |
| N#Cc1c(Nc2ccccc2)nc(SCC(=O)OCCCCCOc2no[n+]([O-])c2S(=O)(=O)c2ccccc2)nc1-c1ccccc1 | 5.64 | 5.42 | 5.23 | < 4.30 |  |
| Cc1cccc(Nc2nc(SCC(=O)N3CCN(CCOc4no[n+]([O-])c4S(=O)(=O)c4ccccc4)CC3)nc(-c3ccccc3)c2C#N)c1 | 5.68 | 5.90 | 5.67 | 5.62 |  |
| N#Cc1c(Nc2ccc(Cl)cc2)nc(SCC(=O)N2CCN(CCOc3no[n+]([O-])c3S(=O)(=O)c3ccccc3)CC2)nc1-c1ccccc1 | 5.68 | 5.69 | 5.52 | 5.52 | Active |
| N#Cc1c(Nc2ccccc2F)nc(SCC(=O)N2CCN(CCOc3no[n+]([O-])c3S(=O)(=O)c3ccccc3)CC2)nc1-c1ccccc1 | 5.92 | 5.84 | 5.64 | 5.45 |  |
| CCOc1ccc(Nc2nc(SCC(=O)N3CCN(CCOc4no[n+]([O-])c4S(=O)(=O)c4ccccc4)CC3)nc(-c3ccccc3)c2C#N)cc1 | 5.55 | 5.53 | 5.27 | 5.45 |  |
| N#Cc1c(Nc2ccc(F)c(Cl)c2)nc(SCC(=O)N2CCN(CCOc3no[n+]([O-])c3S(=O)(=O)c3ccccc3)CC2)nc1-c1ccccc1 | 5.71 | 5.97 | 5.47 | 5.55 |  |
| N#Cc1c(Nc2cccc(F)c2)nc(SCC(=O)N2CCN(CCOc3no[n+]([O-])c3S(=O)(=O)c3ccccc3)CC2)nc1-c1ccccc1 | 5.79 | 5.97 | 5.57 | 5.34 |  |
| N#Cc1c(Nc2cccc(C(F)(F)F)c2)nc(SCC(=O)N2CCN(CCOc3no[n+]([O-])c3S(=O)(=O)c3ccccc3)CC2)nc1-c1ccccc1 | 5.66 | 5.90 | 5.66 | 5.54 |  |
| N#Cc1c(Nc2ccccc2)nc(SCC(=O)OCCCCCCOc2no[n+]([O-])c2S(=O)(=O)c2ccccc2)nc1-c1ccccc1 | 4.89 | < 4.30 | < 4.30 | < 4.30 |  |
| COc1ccccc1Nc1nc(SCC(=O)N2CCN(CCOc3no[n+]([O-])c3S(=O)(=O)c3ccccc3)CC2)nc(-c2ccccc2)c1C#N | 5.77 | 5.84 | 5.48 | 5.33 |  |
| O=S(=O)(c1ccccc1)c1c(OCCN2CCNCC2)no[n+]1[O-] |  | 5.17 |  |  |  |
| N#Cc1c(Nc2ccccc2)nc(SCC(=O)N2CCN(CCOc3no[n+]([O-])c3S(=O)(=O)c3ccccc3)CC2)nc1-c1ccccc1 | 5.72 | 5.70 | 5.53 | 5.64 |  |
| Cc1ccc(Nc2nc(SCC(=O)N3CCN(CCOc4no[n+]([O-])c4S(=O)(=O)c4ccccc4)CC3)nc(-c3ccccc3)c2C#N)cc1 | 5.63 | 5.87 | 5.67 | 5.53 |  |
| N#Cc1c(Nc2ccc(Br)cc2)nc(SCC(=O)N2CCN(CCOc3no[n+]([O-])c3S(=O)(=O)c3ccccc3)CC2)nc1-c1ccccc1 | 5.71 | 5.86 | 5.64 | 5.48 |  |
| N#Cc1c(-c2ccccc2)nc(SCC(=O)N2CCN(CCOc3no[n+]([O-])c3S(=O)(=O)c3ccccc3)CC2)nc1N1CCOCC1 | 5.16 | 5.09 | 5.05 | 5.16 | Active |
| N#Cc1c(Nc2ccccc2)nc(SCC(=O)N2CCC(Oc3no[n+]([O-])c3S(=O)(=O)c3ccccc3)C2)nc1-c1ccccc1 (stereo unspecified) | 5.66 | 5.45 | 5.45 | 5.36 |  |
| CCc1cccc(Nc2nc(SCC(=O)N3CCN(CCOc4no[n+]([O-])c4S(=O)(=O)c4ccccc4)CC3)nc(-c3ccccc3)c2C#N)c1 | 5.62 | 5.95 | 5.54 | 5.39 |  |
| N#Cc1c(Nc2ccccc2C(F)(F)F)nc(SCC(=O)N2CCN(CCOc3no[n+]([O-])c3S(=O)(=O)c3ccccc3)CC2)nc1-c1ccccc1 | 5.52 | 5.78 | 5.65 | 5.41 |  |
| N#Cc1c(Nc2ccccc2)nc(SCC(=O)OCCCCOc2no[n+]([O-])c2S(=O)(=O)c2ccccc2)nc1-c1ccccc1 | 5.61 | 5.15 | 5.29 | < 4.30 |  |
| CCOc1ccccc1Nc1nc(SCC(=O)N2CCN(CCOc3no[n+]([O-])c3S(=O)(=O)c3ccccc3)CC2)nc(-c2ccccc2)c1C#N | 5.69 | 5.84 | 5.44 | 5.43 |  |
| N#Cc1c(Nc2ccccc2)nc(SCC(=O)N2CCC(Oc3no[n+]([O-])c3S(=O)(=O)c3ccccc3)CC2)nc1-c1ccccc1 | 5.70 | 5.59 | 5.22 | 5.15 |  |
| CN1CCN(c2nc(SCC(=O)N3CCN(CCOc4no[n+]([O-])c4S(=O)(=O)c4ccccc4)CC3)nc(-c3ccccc3)c2C#N)CC1 | 5.80 | 5.84 | 5.57 | 5.63 |  |
| COc1cccc(Nc2nc(SCC(=O)N3CCN(CCOc4no[n+]([O-])c4S(=O)(=O)c4ccccc4)CC3)nc(-c3ccccc3)c2C#N)c1 | 5.47 | 5.81 | 5.68 | 5.34 |  |
| N#Cc1c(Nc2ccccc2)nc(SCC(=O)NCCCCCOc2no[n+]([O-])c2S(=O)(=O)c2ccccc2)nc1-c1ccccc1 | 5.64 | 5.66 | 5.40 | 5.34 |  |

The next lines start with results.

| pIC50 (PC-3) | pIC50 (MGC-803) | pIC50 (MCF7) | SMILES | pIC50 (ECa-109 cell line) | Activity [1] |
| --- | --- | --- | --- | --- | --- |
| 5.73 | 5.73 | 5.47 | N#Cc1c(Nc2ccc(Cl)c(Cl)c2)nc(SCC(=O)N2CCN(CCOc3no[n+]([O-])c3S(=O)(=O)c3ccccc3)CC2)nc1-c1ccccc1 | 5.41 |  |
| 5.73 | 5.85 | 5.37 | C=CC(=O)Nc1cccc(Nc2nc(SCC(=O)N3CCN(CCOc4no[n+]([O-])c4S(=O)(=O)c4ccccc4)CC3)nc(-c3ccccc3)c2C#N)c1 | 5.44 |  |
| 5.63 | 5.14 | 5.12 | N#Cc1c(Nc2ccccc2)nc(SCC(=O)OCCCOc2no[n+]([O-])c2S(=O)(=O)c2ccccc2)nc1-c1ccccc1 | 5.07 |  |
| 5.81 | 5.88 | 5.50 | N#Cc1c(Nc2cccc(Br)c2)nc(SCC(=O)N2CCN(CCOc3no[n+]([O-])c3S(=O)(=O)c3ccccc3)CC2)nc1-c1ccccc1 | 5.46 |  |
| 5.68 | 4.73 | < 4.30 | N#Cc1c(Nc2ccccc2)nc(SCC(=O)OCCc2ccc(Oc3no[n+]([O-])c3S(=O)(=O)c3ccccc3)cc2)nc1-c1ccccc1 | 4.64 |  |
| 5.64 | 5.53 | 5.22 | N#Cc1c(Nc2ccccc2)nc(SCC(=O)NCCCOc2no[n+]([O-])c2S(=O)(=O)c2ccccc2)nc1-c1ccccc1 | 5.24 |  |
| 5.86 | 5.81 | 5.65 | N#Cc1c(Nc2ccc(F)cc2)nc(SCC(=O)N2CCN(CCOc3no[n+]([O-])c3S(=O)(=O)c3ccccc3)CC2)nc1-c1ccccc1 | 5.61 |  |
| 5.84 | 5.92 | 5.60 | N#Cc1c(Nc2cccc(Cl)c2)nc(SCC(=O)N2CCN(CCOc3no[n+]([O-])c3S(=O)(=O)c3ccccc3)CC2)nc1-c1ccccc1 | 5.64 |  |
| 5.69 | 5.57 | 4.98 | N#Cc1c(Nc2ccccc2)nc(SCC(=O)OCC#CCOc2no[n+]([O-])c2S(=O)(=O)c2ccccc2)nc1-c1ccccc1 | 5.49 |  |
| 5.45 | 5.81 | 5.65 | N#Cc1c(Nc2ccc(C(F)(F)F)cc2)nc(SCC(=O)N2CCN(CCOc3no[n+]([O-])c3S(=O)(=O)c3ccccc3)CC2)nc1-c1ccccc1 | 5.33 |  |
| 5.94 | 5.96 | 5.68 | CCCc1ccc(Nc2nc(SCC(=O)N3CCN(CCOc4no[n+]([O-])c4S(=O)(=O)c4ccccc4)CC3)nc(-c3ccccc3)c2C#N)cc1 | 5.27 |  |
| 5.65 | 5.80 | 5.63 | Cc1ccccc1Nc1nc(SCC(=O)N2CCN(CCOc3no[n+]([O-])c3S(=O)(=O)c3ccccc3)CC2)nc(-c2ccccc2)c1C#N | 5.61 |  |
| 5.67 | 5.69 | 5.56 | CCCc1ccccc1Nc1nc(SCC(=O)N2CCN(CCOc3no[n+]([O-])c3S(=O)(=O)c3ccccc3)CC2)nc(-c2ccccc2)c1C#N | 5.34 |  |
| 5.85 | 5.91 | 5.65 | CCN1CCN(c2nc(SCC(=O)N3CCN(CCOc4no[n+]([O-])c4S(=O)(=O)c4ccccc4)CC3)nc(-c3ccccc3)c2C#N)CC1 | 5.64 |  |
| 5.57 | 5.84 | 5.47 | CCc1ccc(Nc2nc(SCC(=O)N3CCN(CCOc4no[n+]([O-])c4S(=O)(=O)c4ccccc4)CC3)nc(-c3ccccc3)c2C#N)cc1 | 5.22 |  |
| 5.30 | 5.34 | 5.17 | N#Cc1c(-c2ccccc2)nc(SCC(=O)N2CCN(CCOc3no[n+]([O-])c3S(=O)(=O)c3ccccc3)CC2)nc1N1CCSCC1 | 5.18 |  |
| 5.53 | 5.70 | 5.59 | CCc1ccccc1Nc1nc(SCC(=O)N2CCN(CCOc3no[n+]([O-])c3S(=O)(=O)c3ccccc3)CC2)nc(-c2ccccc2)c1C#N | 5.35 |  |
| 5.63 | 5.59 | 5.38 | N#Cc1c(Nc2ccccc2)nc(SCC(=O)NCCOc2no[n+]([O-])c2S(=O)(=O)c2ccccc2)nc1-c1ccccc1 | 5.20 |  |
